This is an account of results in US9163018B2, “Method of treatment of age-related macular degeneration (AMD)” (Prana Biotechnology Limited, priority 2006, dated 2015).

As a reminder, the IC50 is the concentration that gives 50% inhibition.

Series [1] has as its system Abeta in extract of post-mortem human AD brain tissue. Nature of the series: BAS: human brain amyloid solubilization assay. The settings on record: max effect across the concentration range, referenced to baseline PBS. In kind it is biochemical. The procedure: Assay 5. Human Brain Amyloid Solubilization Assay
This assay was performed in order to assess the ability of a test compound to mobilise Aβ, as an example form of amyloid, from the insoluble to the soluble phase of an extract of tissue from post mortem human AD brain.
Up to 0.5 g of plaque-bearing cortex without meninges was homogenized using a DIAX 900 homogenizer (Hendolph and Co, Kelheim, Germany) or other suitable device for three 30-second periods at full speed in 2 ml of ice-cold phosphate-buffered saline, pH 7.4. To obtain the phosphate-buffered saline-extractable fraction, the homogenate was centrifuged at 100,000×g for 30 min and the supernatant removed. Alternatively, the tissue was freeze dried then pulverized to form a powder which was then weighed out into aliquots for extraction as above. Supernatant, either freeze-dried and resuspended or in unconcentrated form, was dissolved in 200 μl of Tris-Tricine sodium dodecyl sulfate (SDS) sample buffer pH 8.3 containing 8% SDS, 10% 2-mercaptoethanol. Aliquots (10 μl) were then boiled for 10 minutes before SDS-polyacrylamide gel electrophoresis. The insoluble fraction of the cortical samples was obtained by resuspending the initial pelleted sample in 1 ml of phosphate-buffered saline, A 50-μl aliquot of this suspension was then boiled in […] of sample buffer as above.
Tris-Tricine polyacrylamide gel electrophoresis was performed by loading appropriately diluted samples on to 10% to 20% gradient gels (Novex, San Diego, Calif.) followed by transfer on to 0.2-μm nitrocellulose membrane (Bio-Rad, Hercules, Calif.). Aβ was detected by using monoclonal antibody W02, which detects residues 5 through 8, […] (or another suitable antibody) in conjunction with horseradish peroxidase-conjugated rabbit anti-mouse IgG (Dako, Denmark), and visualized by using enhanced chemiluminescence (eg ECL; Amersham Life Science, Buckinghamshire, UK). Each gel included three lanes containing 0.5, 1, and 2 ng of synthetic Aβ40 (Keck Laboratory, Yale University, New Haven, Conn.) as reference standards.
Blot films were scanned by using a suitable imaging system such as the UVP gel documentation system, and densitometry performed using suitable software, eg UVP Labworks. The dynamic range of the film/scanner was determined by using a step tablet (No. 911ST600, Kodak, Rochester N.Y.), a calibrated film exposed by the manufacturer to provided steps of known increasing intensity. The quantifiable range of signal intensity for densitometric analysis of the mono- and dimeric Aβ bands was based on the comparison with a curve obtained by scanning and densitometry of the step tablet.
All samples were analyzed at least twice, and gel loadings and dilutions were adjusted to fit within the quantifiable region of the standard curve. The proportion of ‘soluble’ to ‘insoluble’ Aβ may be used to determine the efficiency of extraction of a test compound compared with the efficiency of a known compound. The insoluble Aβ being comprised of the pelletable fraction derived from the insoluble amyloid plaque from the above cortical samples and the soluble fraction comprising monomeric and/or oligomeric soluble Aβ.

For series [2], the system named is primary cortical neuronal cultured cells. Nature of the series: Test compound cytotoxicity, MTS assay, primary cortical neuronal cultures. Type of series: cell-based, mouse. The settings on record: for Cytotox (% viable) Neuronal cells at 1 μM: 1 μM test compound; for Cytotox (% viable) Neuronal cells at 10 μM: 10 μM test compound. The procedure: Assay 2. Neurotoxicity Assays
Primary Cortical Neuronal Cultures
Media was then replaced with Neurobasal media (Invitrogen Life Technologies) and B27 supplements (Invitrogen Life Technologies). Cultures were maintained at 37° C. in 5% CO2. Prior to experimentation, the culture medium was replaced with Neurobasal media and B27 minus antioxidants (Invitrogen Life Technologies).
Assay 3. MTS Assay for Cell Viability
Cell viability is determined using the MTS assay. Culture medium is replaced with fresh neurobasal medium plus B27 supplements minus antioxidants. 1/10th volume MTS solution (Cell Titre 96 Aqueous One, Promega Corporation) and incubated at 37° C., 2 hrs. 200 microliter aliquots are measured with a spectrophotometer at 560 nm.
Assay 4. Assay for Test Compound Cytoxicity
Neuronal cortical cells were cultured for five days as per Assay 2 in NB media and B27 supplement.
On day six the test compounds were added to the neuronal cell cultures in NB media and B27 supplement minus antioxidants.
Test compounds were dissolved in 100% DMSO to a concentration of 2.5 mM (10 mM if excess compound was weighed out per vial—then diluted to 2.5 mM).
Test compounds were not added directly to cells, instead they were added to a 48 well ‘Drug Plate’ as comprised below:
The Drug Plate was incubated at 37° C. for 15 mins. 200 μl of each well was added in triplicate to the corresponding cell plate. The cell plate was incubated at 37 C, for 4 days.
On completion of the assay, 1/10 volume MTS was added per well of plate (ie 25 μl/250 μl). The plates were incubated at 37 C for 2 hrs, and then absorbance was read at 560 nm.
Background: Tetrazolium assays rely on reduction of a dye to a coloured formazan, in cell work by metabolically active cells.

A further series addresses T1, Aβ 1-42 (Homo sapiens, UniProt P05067).
T1 construct: The reaction solutions contained Aβ 1-42 at concentrations
Nature of the series: Fluorometric H2O2 assay (inhibition of Abeta H2O2 production). Type of series: biochemical. The settings on record: concentration required to inhibit 50% of Abeta H2O2 production; read-out: H2O2 IC50. How it is done:
Assay 1. Fluorometric H2O2 Assay
A fluorometric assay was used to test the ability of a test compound to inhibit hydrogen peroxide generation by Aβ in the presence of copper based on dichlorofluoroscein diacetate (DCF; Molecular Probes, Eugene Oreg.). The DCF solution (5 mM) in 100% dimethyl sulphoxide (previously purged with argon for 2 hr at 20° C.) was deacetylated in the presence of 0.25M NaOH for 30 min and neutralized at pH 7.4 to a final concentration of 1 mM. Horseradish peroxidase (HRP) stock solution was prepared to 1 μM at pH 7.4. The reactions were carried out in PBS, pH 7.4 in a 96 well plate (total volume=250 μl/well). […] The reaction mixture was incubated at 37 C for 60 min. […] H2O2 concentration may be established by comparing fluorescence with the H2O2 standards, Inhibition of Aβ H2O2 production was assayed by including a given concentration of test compound(s) in the test wells.

T1 sequence (P05067 672-713 limits assumed): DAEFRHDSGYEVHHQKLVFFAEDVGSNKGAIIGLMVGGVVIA

Take `Cl.Nc1ccc(O)c2ncccc12` [PB 44]: the BAS max effect in series [1] is recorded as 191%. Besides, in series [2], the “Cytotox (% viable) Neuronal cells at 1 μM” value is 108% and the “Cytotox (% viable) Neuronal cells at 10 μM” value came out at 71%. In addition, on Aβ 1-42, the IC50 is above 10000 nM.

With `CN(c1ccc2cccc(O)c2n1)c1ccc2cccc(O)c2n1` [PB 56], the BAS max effect in series [1] was 311%. In series [2], the “Cytotox (% viable) Neuronal cells at 1 μM” value is 80% and the “Cytotox (% viable) Neuronal cells at 10 μM” value amounted to 25%. The IC50 on Aβ 1-42 is 250 nM.

In series [1], `Cc1cc(C)c2cccnc2c1O` [PB 59] returned a BAS max effect of 293%. In series [2], the “Cytotox (% viable) Neuronal cells at 1 μM” value worked out at 86% and the “Cytotox (% viable) Neuronal cells at 10 μM” value was 85%. The IC50 on Aβ 1-42 was 700 nM.

On to `Oc1ccc(/C=C/c2ccc3cccc(O)c3n2)cc1` [PB 89], for which the BAS max effect in series [1] was found to be 233%. Also, in series [2], the “Cytotox (% viable) Neuronal cells at 1 μM” value came out at 100% and the “Cytotox (% viable) Neuronal cells at 10 μM” value was 75%. Also, the IC50 on Aβ 1-42 worked out at 2500 nM.

The compound `COc1cc(NS(=O)(=O)c2ccc(C)cc2)c2ncccc2c1` [PB 116] registered a BAS max effect in series [1] of 220%. Also, in series [2], the “Cytotox (% viable) Neuronal cells at 1 μM” value amounted to 81% and the “Cytotox (% viable) Neuronal cells at 10 μM” value is given as 60%. Further, on Aβ 1-42, the IC50 was 500 nM.

As for `O=C(O)c1ccccc1Nc1cccc(C(F)(F)F)c1` [PB 233], the BAS max effect in series [1] was 330%. Further, at Aβ 1-42, the 50% inhibitory concentration (IC50) was above 10000 nM.

Compound `Oc1c(Br)cc(-c2ccccc2)c2cccnc12` [PB 806] registered a BAS max effect in series [1] of 311%. Also, in series [2], the “Cytotox (% viable) Neuronal cells at 1 μM” value is on record as 100% and the “Cytotox (% viable) Neuronal cells at 10 μM” value worked out at 97%. In addition, on Aβ 1-42, the 50% inhibitory concentration (IC50) is below 900 nM.

`Oc1c(-c2ccccc2)cc(-c2ccccc2)c2cccnc12` [PB 809] came in with a BAS max effect in series [1] of 146%. For the same compound, in series [2], the “Cytotox (% viable) Neuronal cells at 1 μM” value worked out at 97% and the “Cytotox (% viable) Neuronal cells at 10 μM” value stood at 26%. Moreover, the IC50 on Aβ 1-42 was below 1800 nM.

The compound `COc1cccc(-c2cc(Cl)c3cccnc3c2O)c1` [PB 810] displayed a BAS max effect in series [1] of 184%. In series [2], the “Cytotox (% viable) Neuronal cells at 1 μM” value is reported as 83% and the “Cytotox (% viable) Neuronal cells at 10 μM” value amounted to 71%. Moreover, the IC50 at Aβ 1-42 is below 700 nM.

Turning to `CCCCc1ccc2ccc3ccc(CCCC)nc3c2n1` [PB 847], the BAS max effect in series [1] amounted to 271%. In addition, at Aβ 1-42, the half-inhibitory concentration (IC50) was below 2500 nM.

On to `O=C(NC(=S)Nc1cccc2cccnc12)c1ccccc1` [PB 915], for which, in series [1], the BAS max effect was determined as 202%. Besides, the half-maximal inhibitory concentration (IC50) at Aβ 1-42 was 1900 nM.

`C1CNCCSCCN1` [PB 942] yielded a BAS max effect in series [1] of 220%. For the same compound, on Aβ 1-42, the IC50 was below 100 nM.

As to `CCN(CC)c1ccc2cc(-c3nc4ccccc4s3)c(=O)oc2c1` [PB 981], the BAS max effect in series [1] is 580%.

Consider `Cc1ccc2c(c1)sc(-c1ccc(N(C)C)cc1)[n+]2C` [PB 982], for which, in series [1], the BAS max effect came out at 188%.

Take `Cc1ccc2nc(-c3ccc(N(C)C)cc3)sc2c1` [PB 983]: the BAS max effect in series [1] amounted to 278%.

Compound `CN(C)c1ccc(/C=C/c2nc3ccccc3s2)cc1` [PB 985] registered a BAS max effect in series [1] of 265%.

As for `Oc1cc2cccnc2c2cccnc12` [PB 1026], in series [1], the BAS max effect worked out at 186%. The half-inhibitory concentration (IC50) at Aβ 1-42 turned out to be 230 nM.

Take `Oc1cccc2nc3ccccc3nc12` [PB 1027]: the BAS max effect in series [1] is listed as 306%.

Consider `Cn1cnc2c(O)cccc21` [PB 1041], for which the BAS max effect in series [1] is on record as 319%.

`Oc1cccc2cc3ccccc3nc12` [PB 1043] registered a BAS max effect in series [1] of 175%.

`OC1=NN=CC2C=CC=NC12` (stereo not drawn) [PB 1044] had a BAS max effect in series [1] of 212%.

In turn, `COC(=O)c1nc(Cl)c2cccnc2c1O` [PB 1045] came in with a BAS max effect in series [1] of 166%.

In the case of `COC(=O)c1nc(O)c2cccnc2c1O` [PB 1046], in series [1], the BAS max effect stood at 244%.

In turn, `O=c1ccnc2c(O)cccn12` [PB 1048] gave a BAS max effect in series [1] of 257%.

Compound `O=c1[nH]cnc2c(O)cccc12` [PB 1049] had a BAS max effect in series [1] of 237%.
